Experiments:
Type in all cases: cell-based
[1] = molecular target: T1, M3 muscarinic receptor (Homo sapiens, UniProt P20309); assay: Functional mobilization of intracellular calcium (FLIPR), M3-CHO cells; settings: for M3 Activity: M3-CHO cells, calcium mobilization (FLIPR)
T1 construct: expressed in transfected cells; host or cells: CHO (M3-CHO)
Description: Functional Mobilization of Intracellular Calcium to Determine Muscarinic Receptor Activity:
CHO cells expressing muscarinic receptors (M1 to M5) are grown as monolayers in tissue culture flasks at 37° C. in a humidified atmosphere containing 5% CO2 and passaged every 3-5 days. The growth media is Dulbecco's modified eagles medium (DMEM, Gibco Cat #12430-054), containing 25 mM Hepes and supplemented with Fetal Bovine Serum (Hyclone, cat #SH30071.03), 0.1 mM of MEM non-essential amino acids (GIBCO, Cat #11140-050), 1 mM MEM Sodium Pyruvate (GIBCO Cat #11360-070) and 100 units/ml of Penicillin G and 100 μg/ml of Streptomycin (GIBCO Cat #15140-122). The recombinant muscarinic receptor cell lines are grown under antibiotic pressure with media containing 25 μg/ml zeocin and 500 μg/ml G418 (M1-CHO), 4 μg/ml puromycin, 50 μg/ml zeocin and 2.5 μg/ml blasticidin (M2 and M4-CHO) or 50 μg/ml zeocin and 4 μg/ml puromycin (M3 and M5-CHO).
Cells are harvested at 80-90% confluence using Versene (GIBCO Cat #15040-066), collected by centrifugation and seeded 18-24 hrs prior to running the calcium assay at a density of 5,000-10,000 cells/well in […], clear-bottomed 384-well plates (BD Biocoat, poly-D-lysine, Cat #356663). The day of the experiment, the cells are washed with a plate washer (Bioteck Instruments, ELX 405) using bath 1 buffer (140-mM NaCl, 4.5-mM KCl, 2-mM CaCl2, 1-mM MgCl2, 10-mM Hepes-Na, 10-mM Glucose, pH 7.4, with NaOH) containing 1 mM Probenecid. Next, the calcium dye Fluo-3 (25 μl/well of Fluo-3 AM at 4 μM, Molecular Probes F-1241, in Bath 1 buffer containing 1 mM Probenecid) is added to the 25 μl of Bath 1 remaining in each well after the plate wash and the dye is loaded at 37° C. in the tissue culture incubator for 60-90 min. The fluorescent dye is removed using the plate washer with Bath 1 containing 1 mM Probenecid, leaving 25 μl/well of this solution after the wash. Alternatively, cells can be loaded with the calcium indicator from Molecular Devices (Calcium 3 Assay Reagents, Cat #R7181) adding 5 μl of a 5× solution dye in Bath 1 containing 1 mM Probenecid (10 ml per dye flask cat #R7182 to generate a solution 20×) to 20 μl of the same buffer. After loading for 60 min, the experiment can be run without having to remove the dye.
Compounds are prepared at a 2× fold concentration in a 96-well plate (round bottom, Costar Corning cat #3656), by reconstituting the pre-spotted compounds in bath 1 containing 1 mM probenecid. The final concentration DMSO is 0.5%, and the amount of DMSO is normalized across the assay plate. To determine an agonist action of the compounds on muscarinic receptors, the reconstituted compounds are added (25 μl compound/well) to the cell assay plate (containing 25 μl/well) using the multi-channel robotic system of the FLIPR 3 Instrument (Molecular Devices, Sunnyvale, Calif.). To determine a functional inhibitory action of the compounds on muscarinic receptors, the reconstituted compounds are added (25 μl compound/well) to the assay plate and pre-incubated for 15 min prior to adding 25 μl of Carbachol at 3× the EC80 for each muscarinic subtype. Alternatively, the compounds can be co-applied simultaneously with the agonist. In both assay modes, the fluorescence is recorded for 60 sec (excitation wavelength is […] and emission wavelength 540 nm) using the FLIPR 3 instrument.
The potency, efficacy and selectivity of the muscarinic compounds were evaluated by screening the compound activity across the whole family (M1 to M5 cells). Compounds were also screened for activity on other proteins such as other GPCRs and ion channels to determine selectivity on M4 receptors.
Examples of activities and efficacies of the muscarinic compounds of formulae (I, Ia, Ib, and II) on modulating M1, M2, M3 and M4 receptors are shown below in Table 3. […]

[2] = molecular target: T2, M1 muscarinic receptor (Homo sapiens, UniProt P11229); assay: Functional mobilization of intracellular calcium (FLIPR), M1-CHO cells; settings: for M1 Activity: M1-CHO cells, calcium mobilization (FLIPR)
T2 construct: expressed in transfected cells; host or cells: CHO (M1-CHO)
T2 sequence (P11229 1-460): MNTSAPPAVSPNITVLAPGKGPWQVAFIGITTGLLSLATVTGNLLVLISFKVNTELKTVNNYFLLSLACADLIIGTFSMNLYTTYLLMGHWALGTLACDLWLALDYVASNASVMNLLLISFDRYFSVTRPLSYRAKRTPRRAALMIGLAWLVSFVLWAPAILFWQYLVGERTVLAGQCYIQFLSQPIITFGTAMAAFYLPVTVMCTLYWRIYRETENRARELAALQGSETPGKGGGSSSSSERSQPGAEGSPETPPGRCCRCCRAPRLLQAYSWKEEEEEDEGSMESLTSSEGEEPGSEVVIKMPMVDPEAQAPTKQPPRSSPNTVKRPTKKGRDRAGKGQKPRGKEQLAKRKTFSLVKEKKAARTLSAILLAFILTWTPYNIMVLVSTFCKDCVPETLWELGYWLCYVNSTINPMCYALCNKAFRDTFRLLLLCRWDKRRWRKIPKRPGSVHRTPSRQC
Procedure, shortened: (§1)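 FLIPR fluorescence (ex 488, em 540 nm) recorded 60 sec after compound addition to dye-loaded CHO cells. Agonist mode: compound alone. Antagonist mode: 15 min compound pre-incubation, then carbachol at EC80, or co-application. Efficacy expressed as % of maximal carbachol response.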

[3] = molecular target: T3, M4 muscarinic receptor (Homo sapiens, UniProt P08173); assay: Functional mobilization of intracellular calcium (FLIPR), M4-CHO cells; settings: for M4 Activity: M4-CHO cells, calcium mobilization (FLIPR)
T3 construct: expressed in transfected cells; host or cells: CHO (M4-CHO)
T3 sequence (P08173 1-479): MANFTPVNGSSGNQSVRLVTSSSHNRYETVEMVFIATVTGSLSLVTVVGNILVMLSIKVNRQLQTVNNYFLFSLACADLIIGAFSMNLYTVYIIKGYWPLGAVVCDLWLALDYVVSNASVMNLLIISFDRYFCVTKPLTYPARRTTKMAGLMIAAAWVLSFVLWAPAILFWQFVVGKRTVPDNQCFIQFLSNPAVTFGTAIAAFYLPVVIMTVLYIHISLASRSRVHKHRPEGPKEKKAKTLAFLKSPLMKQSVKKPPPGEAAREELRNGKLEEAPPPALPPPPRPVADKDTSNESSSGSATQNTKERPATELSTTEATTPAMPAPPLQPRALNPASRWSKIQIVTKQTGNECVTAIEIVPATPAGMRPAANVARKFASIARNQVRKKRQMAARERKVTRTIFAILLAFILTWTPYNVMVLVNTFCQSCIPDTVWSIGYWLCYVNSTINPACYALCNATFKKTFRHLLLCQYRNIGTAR
Procedure, shortened: as §1

[4] = molecular target: T4, M2 muscarinic receptor (Homo sapiens, UniProt P08172); assay: Functional mobilization of intracellular calcium (FLIPR), M2-CHO cells; settings: for M2 Activity: M2-CHO cells, calcium mobilization (FLIPR)
T4 construct: expressed in transfected cells; host or cells: CHO (M2-CHO)
T4 sequence (P08172 1-466): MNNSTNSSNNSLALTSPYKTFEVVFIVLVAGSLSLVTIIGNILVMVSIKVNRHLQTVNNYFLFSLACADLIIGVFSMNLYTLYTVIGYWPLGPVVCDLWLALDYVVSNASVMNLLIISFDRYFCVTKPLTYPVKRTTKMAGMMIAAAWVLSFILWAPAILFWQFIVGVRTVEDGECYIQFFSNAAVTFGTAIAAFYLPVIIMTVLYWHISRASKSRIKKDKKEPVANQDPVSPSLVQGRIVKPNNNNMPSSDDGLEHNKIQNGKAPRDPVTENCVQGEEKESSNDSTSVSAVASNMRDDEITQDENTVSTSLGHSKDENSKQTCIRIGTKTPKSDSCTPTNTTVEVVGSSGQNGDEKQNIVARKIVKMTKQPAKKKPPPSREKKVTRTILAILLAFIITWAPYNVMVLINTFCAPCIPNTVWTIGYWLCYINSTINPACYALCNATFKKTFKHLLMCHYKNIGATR
Procedure, shortened: as §1

[5] = 100% efficacy = maximum response obtained with the Carbachol control
[6] = 100% efficacy is the maximum response obtained with the Carbachol control

T1 sequence (P20309 whole entry): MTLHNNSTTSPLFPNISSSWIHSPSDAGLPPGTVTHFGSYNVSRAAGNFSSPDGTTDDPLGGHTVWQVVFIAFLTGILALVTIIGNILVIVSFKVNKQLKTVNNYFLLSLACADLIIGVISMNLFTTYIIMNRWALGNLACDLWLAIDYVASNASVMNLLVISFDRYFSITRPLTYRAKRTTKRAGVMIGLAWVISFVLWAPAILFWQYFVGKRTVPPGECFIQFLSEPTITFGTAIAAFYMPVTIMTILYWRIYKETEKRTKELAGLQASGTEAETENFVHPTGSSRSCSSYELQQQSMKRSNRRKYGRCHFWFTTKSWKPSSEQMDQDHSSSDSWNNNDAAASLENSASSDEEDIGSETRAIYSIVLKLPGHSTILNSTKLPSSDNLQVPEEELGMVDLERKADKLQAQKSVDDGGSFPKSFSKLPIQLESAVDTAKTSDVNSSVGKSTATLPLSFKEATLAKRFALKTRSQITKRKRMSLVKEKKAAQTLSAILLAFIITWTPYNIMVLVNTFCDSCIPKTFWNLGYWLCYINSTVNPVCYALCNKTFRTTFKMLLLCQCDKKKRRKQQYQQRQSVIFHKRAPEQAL

Row | SMILES | Emax [1, 5] | Emax [2, 5] | Emax [3, 5] | Emax [4, 5] | Emax [1, 6] | Emax [2, 6] | Emax [3, 6] | Emax [4, 6] | M3 Activity [1] | M1 Activity [2] | M4 Activity [3] | M2 Activity [4]
1 | COc1ccccc1C1CCN(C2CCC3CCCCC3C2)CC1 (centres unmarked) [Compound 255] | 25 to 100% | 25 to 100% | 25 to 100% | < 25% |  |  |  |  | + (activity was measured to be greater than 5.0 μM) | + (activity was measured to be greater than 5.0 μM) | ++ (activity was measured to be from 1.0 μM to 5.0 μM) | + (activity was measured to be greater than 5.0 μM)
2 | CCOC(=O)N1C2CCC1CC(N1CCC(F)(c3cc(Cl)ccc3OC)CC1)C2 (centres unmarked) [Compound 219, 4-(5-chloro-2-methoxyphenyl)-4-fluoropiperidine tropane ethyl carbamate] | < 25% | 25 to 100% | 25 to 100% | < 25% |  |  |  |  | + (activity was measured to be greater than 5.0 μM) | +++ (activity was measured to be less than 1.0 μM) | +++ (activity was measured to be less than 1.0 μM) | + (activity was measured to be greater than 5.0 μM)
3 | COc1ccc(Cl)cc1C1(F)CCN(C2CCCCCC2)CC1 [Compound 161] | < 25% | 25 to 100% | 25 to 100% | 25 to 100% |  |  |  |  | + (activity was measured to be greater than 5.0 μM) | + (activity was measured to be greater than 5.0 μM) | + (activity was measured to be greater than 5.0 μM) | + (activity was measured to be greater than 5.0 μM)
4 | Cc1ccccc1C1CCN(C2CC3CCC2C3)CC1 (centres unmarked) [Compound 180] | < 25% | 25 to 100% | 25 to 100% | < 25% |  |  |  |  | + (activity was measured to be greater than 5.0 μM) | ++ (activity was measured to be from 1.0 μM to 5.0 μM) | +++ (activity was measured to be less than 1.0 μM) | + (activity was measured to be greater than 5.0 μM)

Now from value to compound, other results behind:

Row | Emax [1, 5] | Emax [2, 5] | Emax [3, 5] | Emax [4, 5] | Emax [1, 6] | Emax [2, 6] | Emax [3, 6] | Emax [4, 6] | SMILES | M3 Activity [1] | M1 Activity [2] | M4 Activity [3] | M2 Activity [4]
5 | < 25% | 25 to 100% | 25 to 100% | 25 to 100% |  |  |  |  | COc1ccc(F)cc1C1CCN([C@@H]2C[C@H]3CC[C@H]2C3)CC1 [Compound 354] | + (activity was measured to be greater than 5.0 μM) | +++ (activity was measured to be less than 1.0 μM) | +++ (activity was measured to be less than 1.0 μM) | ++ (activity was measured to be from 1.0 μM to 5.0 μM)
6 | < 25% | 25 to 100% | 25 to 100% | < 25% |  |  |  |  | COc1ccccc1C1CCN(C2CC(c3ccccc3)C(c3ccccc3)C2)CC1 (centres unmarked) [Compound 339] | + (activity was measured to be greater than 5.0 μM) | + (activity was measured to be greater than 5.0 μM) | + (activity was measured to be greater than 5.0 μM) | + (activity was measured to be greater than 5.0 μM)
7 | < 25% | 25 to 100% | 25 to 100% | < 25% |  |  |  |  | CCOC(=O)N1CCC(CN2CCC(c3cccc(C(F)(F)F)c3C)CC2)CC1 [Compound 337] | + (activity was measured to be greater than 5.0 μM) | ++ (activity was measured to be from 1.0 μM to 5.0 μM) | +++ (activity was measured to be less than 1.0 μM) | + (activity was measured to be greater than 5.0 μM)
8 |  |  |  |  | < 25% | < 25% | 25 to 100% | < 25% | COc1ccc(-c2ccc(C)cc2)cc1C1CCN([C@H]2C[C@H]3CC[C@H]2C3)CC1 [Compound 423] | + (activity was measured to be greater than 5.0 μM) | + (activity was measured to be greater than 5.0 μM) | + (activity was measured to be greater than 5.0 μM) | + (activity was measured to be greater than 5.0 μM)
9 |  | 25 to 100% | 25 to 100% | 25 to 100% |  |  |  |  | COc1ccccc1C1CCN(CC2CC3C=CC2C3)CC1 (centres unmarked) [Compound 307] | + (activity was measured to be greater than 5.0 μM) | ++ (activity was measured to be from 1.0 μM to 5.0 μM) | +++ (activity was measured to be less than 1.0 μM) | + (activity was measured to be greater than 5.0 μM)

From patent US7880007B2, “Bicyclic substituted phenyl piperidine modulators of muscarinic receptors” (Vertex Pharmaceuticals Incorporated, priority 2004, dated 2011)
